Here are results for 2 compounds from patent publication US20250179166A1, “TREATMENT OF BRAIN METASTASIS” (Ramot at Tel-Aviv University Ltd., priority 2022, published 2025).

For assay [1], the system named is 4T1 breast cancer brain metastases. Kind of assay: Orthotopic breast cancer brain metastases (BCBM) model. Type of assay: in vivo, BALB/C mice. Conditions: compared to the control group. On the procedure: Breast Cancer Brain Metastases (BCBM). To generate primary breast rumors prior to BCBM, 4T1 cells (3×10^5 cells/100 μl) were inoculated orthotopically into the mammary fat pad of immunocompetent BALB/C mice. Seven days later, primary lesions were resected. One week post primary tumor resection, 4T1 cells (2×10^4 cells/2 μl) were intracranially inoculated stereotactically to the striatum of the same mice (previously bearing the primary tumors). […] Mice body weight change was monitored three times a week, and tumor growth was followed using 4.7T/1H magnetic resonance imaging (MRI, MR Solutions, UK). PBMCs activation.

A further assay deals with MDA-MB-231 spheroids. Kind of assay: Breast cancer 3D tumor spheroids. Conditions: BC cells alone or with astrocytes, microglia and PBMCs.
The subject of another assay is MDA-MB-231 cells. In words: Breast cancer Transwell migration. Conditions: vs control.
The next assay relates to 131/4-5B1 melanoma cells. Kind of assay: Wound healing migration assay. Type of assay: cell-based, human. Conditions: vs cells in astrocytes SFM. On the procedure:
(§1) Wound Healing Assay. To study the role of MCP-1 in mediating melanoma cells migration, (WM115 and 131/4-5B1 cells) (5×10^4 cells/well) were plated onto 96-well ImageLock tissue culture plate and allowed to grow until confluence. Next, a wound was created in each well using a 96-pin wound-making tool (WoundMaker, Essen BioScience, Sartorius, USA), and dislodged cells were washed with PBS. Melanoma cells were treated for 48 h with astrocytes CM, human astrocytes CM treated with siRNA:PEI polyplexes (500 nM siRNA targeting MCP-1 or scramble siRNA), astrocytes CM supplemented with 10 µg/mL anti-MCP-1 neutralizing antibody, astrocytes SFM supplemented with 1 μg/mL rh/mMCP-1. To monitor wound closure, the plate was placed in the IncuCyte™ ZOOM Live Cell Imaging system (Essen Bioscience, Sartorius, USA) and phase contrast images were taken every 2 h intervals over a course of 48 h using 10× objective. Results were calculated by the IncuCyte™ Software and presented as relative wound density (relative to the background density of the wound at time 0).

The test system of another assay is WM115 melanoma cells. In words: Wound healing migration assay. Conditions: vs cells in astrocytes SFM. Type of assay: cell-based, human. The procedure: as §1
For assay [2], the system named is melanoma cells (D4M.3A, B16-F10, A375, 131/4-5B1 and WM115). In words: Transwell migration of melanoma cells towards bindarit-treated astrocytes. Conditions: addition of rh-MCP-1; p=0.006 (astrocytes), p=0.115 (CM).
Procedure: Transwell® Migration Assay. […] In order to assess melanoma migration in co-culture with astrocytes, human astrocytes (1×10^5 cells/well) or murine astrocytes (2×10^5 cells/well) were seeded in the lower chambers of the Transwell® inserts. […] All migrated cells were then fixed and stained (Hema 3 Stain System; Fisher Diagnostics, fixed and stained (Hema 3 Stain System; Fisher Diagnostics, USA). The stained migrated cells were imaged using EVOS FL Auto microscope (Life Technologies, USA) using 10× objective, brightfield illumination.

Procedure for MDA-MB-231 spheroids: Multicellular tumor spheroids (MCTS). MCTS were prepared using the hanging-drop method as previously shown (24). […] The sprouting of MCTS was analyzed using ImageJ 1.52v software, and the results were presented as total area covered or % of total area covered per spheroid (pixel density) per well.
The plates were incubated for 7 days at 37° C. in 5% CO2 and cell fluorescence was followed and quantified by Cytation™ C10.

Consider `COc1ccc(C2CC(c3c(O)cc(C)oc3=O)=NCCS2)c(OC)c1` (stereo not drawn) [SELPi, 3-[7-(2,4-Dimethoxyphenyl)-2,3,6,7-tetrahydro-1,4-thiazepin-5-yl]-4-hydroxy-6-methyl-2H-pyran-2-one], for which the “systemic disease relapse (primary tumor recurrence or extracranial metastases)” value in assay [1] is “did not show any improvement in relapse”. In addition, the spheroid size entry in the assay with MDA-MB-231 spheroids was “significant decrease”.

For “rh-MCP-1: Recombinant human/murine MCP-1”, the “MDA-MB-231 migration towards MCP-1 recombinant protein” value in the assay on MDA-MB-231 cells is reported as “migrated more”. Also, the “increase of melanoma cell migration (wound healing)” value worked out at 27% with 131/4-5B1 melanoma cells and 5% in the assay on WM115 melanoma cells. In assay [2], the “rescue of melanoma cell migration in presence of bindarit-treated astrocytes” value was “rescued the inhibition of melanoma cell migration”.
